# Reference: patent publication US12168802B2, “Methods of diagnosing and treating CD55 deficiency, hyperactivation of complement, angiopathic thrombosis and protein losing enteropathy (CHAPLE), a newly identified orphan disease” (The United States of America, as represented by the …, priority 2016, dated 2024)
# Columns and labels:
# [1] = system: HUVECs; experiment: Surface marker expression on HUVECs after TNFα or ATRA treatment (flow cytometry); assay type: cell-based, human
# Experimental: FIGS. 9A, 9B, 9C, 9D, 9E, 9F, 9G, 9H, 9I, 9J, 9K, 9L, 9M, 9N, 90, and 9P. Changes in inflammatory cytokine production by CD55 deficient cells promote pro-thrombotic changes in endothelial cells. Cytokine secretion in control and patient T cells following restimulation with anti-CD3 for 48 hours. Cells were either left untreated or treated with a combination of C3aR and C5aR1 inhibitors, both at 10 μM final concentration. Each patient point represents the average of at least three independent experiments. Results are for TNFα, IL10, or IFNγ (A, B, and C respectively). Anaphylatoxin receptor surface expression on proliferating CD4^+ T cells grown in complete RPMI supplemented with 100 u/mL IL2, isotype: filled grey line, sample: solid black line (D). C3aR expression on proliferating CD4^+ T cells grown in serum free X-vivo15 media supplemented with 100 u/mL IL-2 w/wo 10 nM ATRA, grey and black line respectively, isotype: filled grey line (E). IL-10 production in control and patient T cells stimulated with anti-CD3 and stimulatory antibodies directed against the indicated costimulatory molecules (F). Flow plots of thrombomodulin (TM) and Tissue Factor (TF) expression on HUVECs cultured for 24 hours w/wo 10 ng/mL TNFα (G). Quantification of the change in TM and TF expression on HUVECs in response to 24 hour culture with increasing doses of TNFα (H). Flow plots of CD46 and CD59 expression on HUVECs cultured for 24 hours w/wo 10 ng/mL TNFα (I). Quantification of CD46, CD59, and CD55 expression on HUVECs in response to 24 hour culture with increasing doses of TNFα (J, K, and L, respectively). Quantification of the change in TM and TF expression on HUVECs in response to 48 hour culture with increasing doses of ATRA (M). Quantification of CD46, CD59, and CD55 expression on HUVECs in response to 48 hour culture with increasing doses of ATRA (N, O, and P, respectively). (not significant (n.s.), * p<0.05, **p<0.01, ***p<0.001).
# Flow Cytometry. Adherent cells were treated with 0.05% trypsin EDTA to lift them from the surface followed by addition of 5% FBS to inactivate the trypsin. Suspension cells were collected from culture following mixture of the culture by repeat pipetting. Cells were washed and resuspended in FACS buffer (1% FBS, 0.05% sodium azide, and 5 mM EDTA in PBS) at 2×10^6 cells/mL. Staining or isotype antibodies were added at 1:200 final dilutions and incubated with cells at 4° C. for 30 minutes to 1 hour. Cells were then washed 3× and resuspended in FACS buffer with 1% PFA and analyzed by flow cytometry. Flow files were analyzed on FlowJo version 9.9 or above (FlowJo, LLC, Ashland, OR, USA).
# HUVEC Experiments. Huvecs grown to 80% confluency, and before passage 8, were trypsonized and replated in 24 well tissue culture plates at 200,000 cells/well in Huvec media. Twenty-four hours later the indicated concentrations of TNFα, IL10, or all trans retinoic acid (ATRA) were added. Twenty-four hours later in the cast of TNFα or IL10 treatment or 48 hours later in the case of ATRA, cells were trypsonized and stained for the indicated surface markers following the described flow cytometry staining protocol. Cells were then immediately analyzed.
# [2] = system: human T cells; experiment: C3d complement deposition on T cells incubated with normal human serum (flow cytometry); assay type: cell-based; conditions: 5% nHS, 100 μM Compstatin
# Experimental: (§1) FIGS. 11A, 11B, and 11C. (A) C3d deposition on patient and control T cells were incubated in the presence or absence of 5% nHS with or without the addition of 100 μM Compstatin to block complement activation. (B) Ratio of C3a to C4a in culture supernatants after 24 hours of incubation with 5% nHS w/wo 100 μM compstatin. (C) Ratio of C5a to C4a in culture supernatants after 24 hours of incubation with 5% nHS or without 100 μM compstatin. ***=p<0.001.
# Complement Deposition. T cells (Patient CD4^+ T cell blasts or Jurkat T cells) were collected and washed 3× in basal RPMI. Cells were then resuspended in basal media and rested for 2-3 hours at 37° C. to allow any deposited complement components to be cleared from the cell surface. Rested cells were then collected and resupended in basal RPMI or basal RPMI that had been adjusted to pH 6.5 (acidified media) to a final concentration of 1×10^6 cells/mL. Non-heat shocked pooled normal human serum was then added to cell suspension for the indicated amount of time. Human serum that had been heat shocked at 56° C. for 30 minutes was used as a negative control for complement activation. […] Cells were washed 3× and resuspended in FACS buffer (PBS, 1% FBS) and analyzed for C3d deposition by flow cytometry. […] Cells were then treated with trypsin/EDTA to release cells into suspension, washed, and then analyzed for C3d deposition as above. […]
# [3] = system: patient T cells; experiment: Anaphylatoxin ratios (C3a/C4a, C5a/C4a) in T cell culture supernatants; assay type: cell-based, human; conditions: 24 hours incubation with 5% nHS, 100 μM Compstatin
# Experimental: as §1
# Compstatin Inhibits C3d Deposition on Human Cells. FIG. 11A illustrates that Compstatin inhibits C3d deposition on human T cells. […] In FIG. 11C, the ratio of C5a to C4a in culture supernatants of patient T cells after 24 hours of incubation with 5% nHS and 100 μM Compstatin is decreased, as compared to patient T cells not treated with Compstatin. ***=p<0.001.
# [4] = system: human CD4+ T cells; experiment: Surface expression of C3aR and gut homing markers on CD4+ T cells grown with ATRA; assay type: cell-based; conditions: w/wo 10 nM ATRA
# Experimental: FIGS. 9A, 9B, 9C, 9D, 9E, 9F, 9G, 9H, 9I, 9J, 9K, 9L, 9M, 9N, 90, and 9P. Changes in inflammatory cytokine production by CD55 deficient cells promote pro-thrombotic changes in endothelial cells. Cytokine secretion in control and patient T cells following restimulation with anti-CD3 for 48 hours. Cells were either left untreated or treated with a combination of C3aR and C5aR1 inhibitors, both at 10 μM final concentration. Each patient point represents the average of at least three independent experiments. Results are for TNFα, IL10, or IFNγ (A, B, and C respectively). […] Quantification of the change in TM and TF expression on HUVECs in response to 24 hour culture with increasing doses of TNFα (H). […] Quantification of CD46, CD59, and CD55 expression on HUVECs in response to 24 hour culture with increasing doses of TNFα (J, K, and L, respectively). Quantification of the change in TM and TF expression on HUVECs in response to 48 hour culture with increasing doses of ATRA (M). Quantification of CD46, CD59, and CD55 expression on HUVECs in response to 48 hour culture with increasing doses of ATRA (N, O, and P, respectively). […]
# Flow Cytometry. […] Cells were then washed 3× and resuspended in FACS buffer with 1% PFA and analyzed by flow cytometry. Flow files were analyzed on FlowJo version 9.9 or above (FlowJo, LLC, Ashland, OR, USA).
# [5] = 48 hour culture with increasing doses of ATRA
molecule,measurement,setting,value
TNFα,CD46 expression on endothelial cells,[1]; 24 hour culture with TNFα,decreased
same,CD55 expression on endothelial cells,[1]; 24 hour culture with TNFα,modestly increasing
same,CD59 expression on endothelial cells,[1]; 24 hour culture with TNFα,decreased
same,thrombomodulin (TM) and tissue factor (TF) expression on endothelial cells,[1]; 24 hour culture with TNFα,induces procoagulatory
CC[C@H](C)[C@H](N)C(=O)N[C@H]1CSSC[C@@H](C(=O)N[C@H](C(N)=O)[C@@H](C)O)NC(=O)[C@H](CCCN=C(N)N)NC(=O)[C@H](Cc2cnc[nH]2)NC(=O)[C@H](Cc2cnc[nH]2)NC(=O)CNC(=O)[C@H](Cc2c[nH]c3ccccc23)NC(=O)[C@H](CC(=O)O)NC(=O)[C@H](CCC(N)=O)NC(=O)[C@H](C(C)C)NC(=O)[C@H](C(C)C)NC1=O [Compstatin],C3d deposition on patient T cells,[2],substantially inhibited
same,ratio of C3a to C4a in culture supernatants,[3],considerably decreased
same,ratio of C5a to C4a in culture supernatants,[3],decreased
"CC1=C(/C=C/C(C)=C/C=C/C(C)=C/C(=O)O)C(C)(C)CCC1 [ATRA, all trans retinoic acid]",CD46 expression,[1]; [5],no change
same,CD55 expression,[1]; [5],increase
same,CD59 expression,[1]; [5],no change
same,thrombomodulin expression,[1]; [5],dose-dependent decrease
same,surface expression of C3aR on T cells,[4]; serum free X-vivo15 media,depended on the presence
same,chemokine receptor CCR9 and integrin α4β7 (gut homing) on T cells,[4]; serum free conditions,expressed
